From ChEMBL document CHEMBL1201862, “PubChem BioAssay data set” (2004)
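1) Cells in 96-well plates. 2) Compound, 48 h, 5 concentrations. 3) Linear interpolation between surrounding doses. 4) Unreached endpoint = highest concentration. At the GI50, growth is halved.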 Active and inactive are the calls of the source. No stated cut-off is given here; in the data, active = GI50 up to about 1.1 µM and inactive = higher.

Key:
Assay in all cases: DTP human tumour cell line panel, 48 h
786-0 = system: 786-0
A498 = system: A498
A549 = system: A549
ACHN = system: ACHN
CAKI-1 = system: CAKI-1
CCRF-CEM = system: CCRF-CEM
COLO 205 = system: COLO 205
DLD-1 = system: DLD-1
DMS-114 = system: DMS-114
DMS-273 = system: DMS-273
EKVX = system: EKVX
HCC 2998 = system: HCC 2998
HCT-116 = system: HCT-116
HCT-15 = system: HCT-15
HL-60 = system: HL-60
HOP-18 = system: HOP-18
HOP-62 = system: HOP-62
HOP-92 = system: HOP-92
HT-29 = system: HT-29
IGROV-1 = system: IGROV-1
K562 = system: K562
KM12 = system: KM12
LOX IMVI = system: LOX IMVI
M14 = system: M14
M19-MEL = system: M19-MEL
MOLT-4 = system: MOLT-4
NCI-H226 = system: NCI-H226
NCI-H23 = system: NCI-H23
NCI-H460 = system: NCI-H460
OVCAR-3 = system: OVCAR-3
OVCAR-4 = system: OVCAR-4
OVCAR-5 = system: OVCAR-5
OVCAR-8 = system: OVCAR-8
RXF 393 = system: RXF 393
RXF 631 = system: RXF 631
SF-268 = system: SF-268
SF-295 = system: SF-295
SF-539 = system: SF-539
SK-MEL-28 = system: SK-MEL-28
SK-MEL-2 = system: SK-MEL-2
SK-MEL-5 = system: SK-MEL-5
SK-OV-3 = system: SK-OV-3
SN12C = system: SN12C
SNB-19 = system: SNB-19
SNB-75 = system: SNB-75
SNB-78 = system: SNB-78
SW-620 = system: SW-620
TK-10 = system: TK-10
U-251 = system: U-251
UACC-257 = system: UACC-257
UACC-62 = system: UACC-62
UO-31 = system: UO-31
KM-20L2 = system: KM-20L2
LXFL 529 = system: LXFL 529
Malme-3M = system: Malme-3M
NCI-H522 = system: NCI-H522
RPMI-8226 = system: RPMI-8226
XF498 = system: XF498
SR = system: SR

Measured: GI50

CN(C)CCNC(=O)c1cccc2c1nc(-c1cccnc1)c1ccccc12
3.74 µM: HCT-15
inactive: 786-0 5.04 µM | A498 1.61 µM | A549 1.21 µM | ACHN 2.58 µM | CAKI-1 2.45 µM | CCRF-CEM 4.29 µM | COLO 205 4.47 µM | DLD-1 4.1 µM | DMS-114 4.91 µM | DMS-273 3.02 µM | EKVX 4.24 µM | HCC 2998 6.9 µM | HCT-116 2.95 µM | HL-60 1.97 µM | HOP-18 21.6 µM | HOP-62 6.24 µM | HOP-92 5.31 µM | HT-29 3.76 µM | IGROV-1 1.73 µM | K562 5.98 µM | KM12 6.78 µM | LOX IMVI 2.15 µM | M14 6.67 µM | M19-MEL 5 µM | NCI-H226 2.3 µM | NCI-H23 4.24 µM | OVCAR-3 10.1 µM | OVCAR-4 4.91 µM | OVCAR-5 8.83 µM | OVCAR-8 4.81 µM | RXF 393 4.71 µM | RXF 631 1.96 µM | SF-268 6.05 µM | SF-295 4.72 µM | SF-539 2.65 µM | SK-MEL-28 11.1 µM | SK-MEL-2 10.6 µM | SK-MEL-5 3.37 µM | SK-OV-3 10 µM | SN12C 3.3 µM | SNB-19 7.05 µM | SNB-75 9.35 µM | SNB-78 8.18 µM | SW-620 2.17 µM | TK-10 2.25 µM | U-251 3.75 µM | UACC-257 3.89 µM | UACC-62 3.57 µM | UO-31 2.69 µM
active: MOLT-4 0.311 µM | NCI-H460 0.303 µM

Cc1ccc(S(=O)(=O)N/N=C(/c2nc3ccc([N+](=O)[O-])cc3nc2O)C(O)c2ccc(C(O)/C(=N\NS(=O)(=O)c3ccc(C)cc3)c3nc4ccc([N+](=O)[O-])cc4nc3O)cc2)cc1 (configuration not stated)
inactive: 786-0 > 100 µM | A498 59 µM | A549 49.1 µM | ACHN 28.6 µM | CCRF-CEM 13.6 µM | COLO 205 41.4 µM | DLD-1 33.3 µM | DMS-114 5.98 µM | DMS-273 38.4 µM | EKVX 81.7 µM | HCC 2998 28 µM | HCT-116 54.2 µM | HL-60 7.82 µM | HOP-62 43.1 µM | HOP-92 2.55 µM | HT-29 31 µM | IGROV-1 > 100 µM | K562 13 µM | KM-20L2 55.8 µM | KM12 19.3 µM | LOX IMVI 20.3 µM | LXFL 529 21.4 µM | M14 20.8 µM | MOLT-4 28.2 µM | Malme-3M > 100 µM | NCI-H23 > 100 µM | NCI-H460 35.6 µM | NCI-H522 3.15 µM | OVCAR-3 61.2 µM | OVCAR-5 > 100 µM | OVCAR-8 92.3 µM | RPMI-8226 26.1 µM | RXF 393 > 100 µM | RXF 631 56.5 µM | SF-539 42.9 µM | SK-MEL-28 > 100 µM | SK-MEL-2 77.6 µM | SK-MEL-5 28.1 µM | SK-OV-3 > 100 µM | SNB-19 > 100 µM | SNB-75 > 100 µM | SNB-78 > 100 µM | SW-620 42.8 µM | TK-10 > 100 µM | U-251 67.6 µM | UACC-257 14.8 µM | UACC-62 68.4 µM | UO-31 38.4 µM | XF498 > 100 µM

c1ccc(N/N=C2\NN=C(c3ccccc3)CS2)cc1
4.59 µM: HCT-15
inactive: 786-0 15.7 µM | A498 10.8 µM | A549 4.78 µM | ACHN 4.38 µM | CAKI-1 2.55 µM | CCRF-CEM 3.17 µM | EKVX 12.4 µM | HCC 2998 4.74 µM | HCT-116 3.8 µM | HL-60 3.58 µM | HOP-62 22.3 µM | HOP-92 11.3 µM | HT-29 6.89 µM | IGROV-1 15 µM | K562 3.34 µM | KM-20L2 6.46 µM | KM12 13.2 µM | LOX IMVI 4.39 µM | M14 6.73 µM | MOLT-4 3.66 µM | NCI-H226 16 µM | NCI-H23 17.9 µM | NCI-H460 14 µM | NCI-H522 3.49 µM | OVCAR-3 14.9 µM | OVCAR-5 14.7 µM | OVCAR-8 5.27 µM | RXF 393 7.8 µM | RXF 631 5.52 µM | SF-268 5.18 µM | SF-295 7.46 µM | SF-539 18.1 µM | SK-MEL-28 16.3 µM | SK-MEL-2 18.2 µM | SK-OV-3 14.9 µM | SN12C > 10 µM | SNB-19 19.3 µM | SNB-78 5.46 µM | SR 4.3 µM | SW-620 12.1 µM | TK-10 11.5 µM | U-251 > 10 µM | UACC-257 16 µM | UACC-62 5.81 µM | UO-31 12.9 µM
